These results are taken from patent US20080139564A1, “SUBSTITUTED PHENYL PROPYL AMINES AS HISTAMINE H3 RECEPTOR AND SEROTONIN TRANSPORTER MODULATORS” (priority 2006, published 2008).

Molecules are shown by their SMILES.

In one assay the target is T1, Rat SERT (Rattus norvegicus, UniProt P31652).
T1 construct: A rat brain without cerebellum (Zivic Laboratories, Inc.—Pittsburgh, Pa.) was homogenized; tissue Zivic Laboratories, Inc; host or cells: rat brain without cerebellum
Put plainly: Rat brain SERT binding ([3H]-Citalopram displacement, rat brain membranes). The following applies: 0.6 nM [3H]-Citalopram, 60 min at 25° C. On the procedure:
A rat brain without cerebellum (Zivic Laboratories, Inc.—Pittsburgh, Pa.) was homogenized in a 52.6 mM Tris pH 8/126.4 mM NaCl/5.26 mM KCl mixture and centrifuged at 1,000 rpm for 5 min. The supernatant was removed and re-centrifuged at 15,000 rpm for 30 min. Pellets were re-homogenized in a 52.6 mM Tris pH8/126.4 mM NaCl/5.26 mM KCl mixture. Membranes were incubated with 0.6 nM [^3H]-Citalopram plus/minus test compounds for 60 min at 25° C. and harvested by rapid filtration over GF/C glass fiber filters (pretreated with 0.3% polyethylenimine) followed by four washes with ice-cold buffer. Nonspecific binding was defined in the presence of 100 μM fluoxetine.

The target of another assay is T2, human SERT (Homo sapiens, UniProt P31645).
T2 construct: expressed in transfected cells; host or cells: HEK293
T2 sequence (P31645 whole entry): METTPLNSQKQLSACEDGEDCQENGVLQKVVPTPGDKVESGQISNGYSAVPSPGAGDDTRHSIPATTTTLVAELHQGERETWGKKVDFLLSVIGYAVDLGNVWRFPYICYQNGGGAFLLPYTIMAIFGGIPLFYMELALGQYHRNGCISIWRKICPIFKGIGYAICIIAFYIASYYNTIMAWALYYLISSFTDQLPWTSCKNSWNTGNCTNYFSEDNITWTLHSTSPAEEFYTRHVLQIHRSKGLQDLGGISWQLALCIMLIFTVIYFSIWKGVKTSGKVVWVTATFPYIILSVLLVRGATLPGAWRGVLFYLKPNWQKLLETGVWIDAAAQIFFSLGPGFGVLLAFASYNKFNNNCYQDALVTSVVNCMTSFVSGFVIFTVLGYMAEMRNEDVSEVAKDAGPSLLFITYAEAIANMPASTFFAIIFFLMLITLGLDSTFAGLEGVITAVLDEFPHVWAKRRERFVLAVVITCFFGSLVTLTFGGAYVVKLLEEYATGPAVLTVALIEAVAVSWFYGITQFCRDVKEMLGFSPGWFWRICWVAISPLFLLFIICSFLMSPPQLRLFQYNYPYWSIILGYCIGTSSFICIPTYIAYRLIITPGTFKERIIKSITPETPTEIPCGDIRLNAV
Put plainly: Human SERT binding (3H-citalopram displacement, HEK293 membranes). The following applies: 3H-citalopram 3.1 nM, rt for 1 h. The procedure:
Homogenized HEK293 (Human Embryonic Kidney) membranes expressing the human SERT were incubated with ^3H-citalopram (SERT) at rt for 1 h in 50 mM Tris, 120 mM NaCl, 5 mM KCl (pH 7.4). Nonspecific binding was determined in the presence of 10 μM fluoxetine for the SERT. The membranes were washed and the radioactivity was counted as above. Calculations for Ki at the SERT were based on a Kd value for ^3H-citalopram and a ligand concentration of 3.1 nM.

In a further assay the target is T3, human H3 receptor (Homo sapiens, UniProt Q9Y5N1).
T3 construct: expressed in transfected cells
T3 sequence (Q9Y5N1 whole entry): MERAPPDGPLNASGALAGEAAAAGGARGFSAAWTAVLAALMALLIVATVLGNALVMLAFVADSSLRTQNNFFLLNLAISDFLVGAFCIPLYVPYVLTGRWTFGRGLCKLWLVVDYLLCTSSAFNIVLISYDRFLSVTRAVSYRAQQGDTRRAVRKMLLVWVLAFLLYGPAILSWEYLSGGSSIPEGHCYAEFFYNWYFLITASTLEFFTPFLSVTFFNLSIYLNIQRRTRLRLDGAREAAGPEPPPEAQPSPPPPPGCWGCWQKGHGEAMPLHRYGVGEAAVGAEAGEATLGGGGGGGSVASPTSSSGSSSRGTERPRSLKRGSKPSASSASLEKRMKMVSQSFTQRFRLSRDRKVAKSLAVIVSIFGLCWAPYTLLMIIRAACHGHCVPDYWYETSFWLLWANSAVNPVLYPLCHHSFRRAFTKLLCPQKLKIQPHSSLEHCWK
Put plainly: H3 receptor binding (N-[3H]-α-methylhistamine displacement, SK-N-MC cell membranes). The settings on record: 0.8 nM N-[3H]-α-methylhistamine, 60 min at 25° C. On the procedure: Binding of compounds to the cloned human H3 receptor, stably expressed in SK-N-MC cells, was performed (Lovenberg, T. W. et al. J. Pharmacol. Exp. Ther. 2000, 293, 771-778). Briefly, cell pellets from SK-N-MC cells expressing the human H3 receptor were homogenized in 50 mM Tris-HCl/5 mM EDTA and re-centrifuged at 30,000 g for 30 min. Pellets were re-homogenized in 50 mM Tris/5 mM EDTA (pH 7.4). Membranes were incubated with 0.8 nM N—[^3H]-α-methylhistamine plus/minus test compounds for 60 min at 25° C. and harvested by rapid filtration over GF/C glass fiber filters (pretreated with 0.3% polyethylenimine) followed by four washes with ice-cold buffer. Nonspecific binding was defined in the presence of 10 μM histamine.

T1 sequence (P31652 whole entry): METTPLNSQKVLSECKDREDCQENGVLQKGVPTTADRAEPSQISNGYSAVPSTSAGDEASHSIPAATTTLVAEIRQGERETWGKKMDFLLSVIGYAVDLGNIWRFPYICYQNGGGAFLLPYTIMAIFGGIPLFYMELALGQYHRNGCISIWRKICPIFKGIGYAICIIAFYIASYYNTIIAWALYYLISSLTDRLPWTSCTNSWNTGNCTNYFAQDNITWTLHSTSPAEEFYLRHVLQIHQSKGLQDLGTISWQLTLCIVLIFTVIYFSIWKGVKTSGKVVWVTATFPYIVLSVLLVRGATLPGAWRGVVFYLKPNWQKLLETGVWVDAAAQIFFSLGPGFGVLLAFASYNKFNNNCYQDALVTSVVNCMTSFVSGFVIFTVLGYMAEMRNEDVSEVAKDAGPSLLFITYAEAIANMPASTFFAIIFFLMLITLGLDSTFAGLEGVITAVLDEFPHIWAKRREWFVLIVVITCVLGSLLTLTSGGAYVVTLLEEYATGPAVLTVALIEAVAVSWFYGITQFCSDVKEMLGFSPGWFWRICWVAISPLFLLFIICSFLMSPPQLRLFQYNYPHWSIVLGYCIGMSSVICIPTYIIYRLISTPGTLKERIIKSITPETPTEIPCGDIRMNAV

By Ki is commonly meant the equilibrium dissociation constant of an inhibitor or competing ligand from its target. In the case of `CN(C)CCC(Oc1ccc(Cl)c(Cl)c1)c1ccc(OCCCN2CCCCC2)cc1` (single isomer, unassigned; (+)) [Example 75, (+)-{3-(3,4-Dichloro-phenoxy)-3-[4-(3-piperidin-1-yl-propoxy)phenyl]-propyl}-dimethyl-amine], the inhibition constant (Ki) at Rat SERT is 9.7 nM.
On the same count and under the same terms, as for `CN(C)CCC(Oc1ccc(Cl)c(Cl)c1)c1ccc(OCCCN2CCCCC2)cc1` (single isomer, unassigned; (-)) [Example 74, (−){3-(3,4-Dichloro-phenoxy)-3-[4-(3-piperidin-1-yl-propoxy)phenyl]-propyl}-dimethyl-amine], the figure is 11 nM.
As for `CN(C)CCC(Oc1ccccc1)c1cccc(OCCCN2CCCCC2)c1` (centres unmarked) [Example 3, Dimethyl-[3-phenoxy-3-[3-(3-piperidin-1-yl-propoxy)-phenyl]-propyl]-amine], the results for the Ki on human SERT, at Rat SERT and on human H3 receptor were 199 nM, 16 nM and 3 nM, respectively.
On to `CSc1ccc(OC(CCN(C)C)c2ccc(OCCCN3CCCCC3)cc2)cc1` (centres unmarked) [Example 4, Dimethyl-{3-(4-methylsulfanyl-phenoxy)-3-[4-(3-piperidin-1-yl-propoxy)-phenyl]-propyl}-amine], for which the Ki on human SERT was 10 nM; at Rat SERT it was 1.3 nM; at human H3 receptor it was 0.9 nM.
With `CN(C)CCC(Oc1ccc(C#N)cc1)c1ccc(OCCCN2CCCCC2)cc1` (centres unmarked) [Example 5, 4-{3-Dimethylamino-1-[4-(3-piperidin-1-yl-propoxy)-phenyl]-propoxy}-benzonitrile], the Ki at human SERT was found to be 158 nM; on Rat SERT, 8 nM; on human H3 receptor it was 0.2 nM.
For `Cc1ccc(OC(CCN(C)C)c2ccc(OCCCN3CCCCC3)cc2)cc1` (centres unmarked) [Example 6, Dimethyl-{3-[4-(3-piperidin-1-yl-propoxy)-phenyl]-3-p-tolyloxy-propyl}-amine], in that order: 16 nM, 1.5 nM and 0.6 nM.
For the compound `COc1ccc(OC(CCN(C)C)c2ccc(OCCCN3CCCCC3)cc2)cc1` (centres unmarked) [Example 7, {3-(4-Methoxy-phenoxy)-3-[4-(3-piperidin-1-yl-propoxy)-phenyl]-propyl}-dimethyl-amine], the Ki on human SERT is 60 nM; at Rat SERT, 2 nM; at human H3 receptor, 0.9 nM.
On Rat SERT, `CN(C)CCC(Oc1ccc(Cl)c(Cl)c1)c1ccc(OCCCN2CCCCC2)cc1` (centres unmarked) [Example 9, {3-(3,4-Dichloro-phenoxy)-3-[4-(3-piperidin-1-yl-propoxy)-phenyl]-propyl}-dimethyl-amine] came in with an inhibitory constant (Ki) of 6 nM.
In the case of `CN(C)CCC(Oc1cccc(Cl)c1)c1ccc(OCCCN2CCCCC2)cc1` (centres unmarked) [Example 14, {3-(3-Chloro-phenoxy)-3-[4-(3-piperidin-1-yl-propoxy)-phenyl]-propyl}-dimethyl-amine], the inhibition constant (Ki) on human SERT came to 7 nM; at human H3 receptor it was 1.7 nM.
`CN(C)CCC(Oc1ccc(Cl)cc1)c1ccc(C#CCCN2CCCCC2)cc1` (centres unmarked) [Example 25, {3-(4-Chloro-phenoxy)-3-[4-(4-piperidin-1-yl-but-1-ynyl)-phenyl]-propyl}-dimethyl-amine]: the Ki on Rat SERT is 39 nM; on human H3 receptor it was 21 nM.
For `COc1ccc(OC(CCN(C)C)c2ccc(C#CCCN3CCSCC3)cc2)cc1` (centres unmarked) [Example 26, {3-(4-Methoxy-phenoxy)-3-[4-(4-thiomorpholin-4-yl-but-1-ynyl)phenyl]-propyl}-dimethyl-amine], in that order: 43 nM and 11 nM.
For `CN(C)CCC(Oc1ccc(C(F)(F)F)cc1)c1ccc(C#CCCN2CCOCC2)cc1` (centres unmarked) [Example 27, Dimethyl-[3-[4-(4-morpholin-4-yl-but-1-ynyl)-phenyl]-3-(4-trifluoromethyl-phenoxy)-propyl]-amine], the Ki at Rat SERT was 80 nM; at human H3 receptor it was 60 nM.
Turning to `CN(C)CCC(Oc1ccc(C(F)(F)F)cc1)c1ccc(C#CCCN2CCSCC2)cc1` (centres unmarked) [Example 28, Dimethyl-[3-[4-(4-thiomorpholin-4-yl-but-1-ynyl)-phenyl]-3-(4-trifluoromethyl-phenoxy)-propyl]-amine], the inhibition constant (Ki) came to 170 nM on Rat SERT and 122 nM on human H3 receptor.
Turning to `CC(C)N1CCN(CCC#Cc2ccc(C(CCN(C)C)Oc3ccc(C(F)(F)F)cc3)cc2)CC1` (centres unmarked) [Example 29, [3-{4-[4-(4-Isopropyl-piperazin-1-yl)-but-1-ynyl]-phenyl}-3-(4-trifluoromethyl-phenoxy)-propyl]-dimethyl-amine], the figures for the Ki on Rat SERT and at human H3 receptor were 39 nM and 255 nM, respectively.
For `CN(C)CCC(Oc1ccc(Cl)c(Cl)c1)c1ccc(C#CCCN2CCCCC2)cc1` (centres unmarked) [Example 30, {3-(3,4-Dichloro-phenoxy)-3-[4-(4-piperidin-1-yl-but-1-ynyl)phenyl]-propyl}-dimethyl-amine], the Ki on Rat SERT is 21 nM; on human H3 receptor, 24 nM.
For `CC(C)N1CCN(C(=O)c2ccc(OC(CCN(C)C)c3ccc(C(F)(F)F)cc3)cc2)CC1` (centres unmarked) [Example 46, {4-[3-Dimethylamino-1-(4-trifluoromethyl-phenyl)-propoxy]-phenyl}-(4-isopropyl-piperazin-1-yl)-methanone], in that order: 58 nM and 1 nM.
On to `CCCCN1CCN(C(=O)c2ccc(C(CCN(C)C)Oc3ccc(C(F)(F)F)cc3)cc2)CC1` (centres unmarked) [Example 48, (4-Butyl-piperazin-1-yl)-{4-[3-dimethylamino-1-(4-trifluoromethylphenoxy)-propyl]-phenyl}-methanone], for which the inhibition constant Ki at Rat SERT was 86 nM; on human H3 receptor it was 17 nM.
For the compound `CCCCN1CCN(Cc2ccc(C(CCN(C)C)Oc3ccc(C(F)(F)F)cc3)cc2)CC1` (centres unmarked) [Example 49, [3-[4-(4-Butyl-piperazin-1-ylmethyl)-phenyl]-3-(4-trifluoromethylphenoxy)-propyl]-dimethyl-amine], the Ki stood at 48 nM at Rat SERT and 73 nM at human H3 receptor.
As to `CN(C)CCC(Oc1ccc(C#CCCN2CCSCC2)cc1)c1ccc(Cl)cc1` (centres unmarked) [Example 58, {3-(4-Chloro-phenyl)-3-[4-(4-thiomorpholin-4-yl-but-1-ynyl)phenoxy]-propyl}-dimethyl-amine], the inhibitory constant (Ki) is 150 nM at Rat SERT and 29 nM on human H3 receptor.
Regarding `CN(C)CCC(Oc1ccc(C#CCCN2CCOCC2)cc1)c1ccc(Cl)cc1` (centres unmarked) [Example 59, {3-(4-Chloro-phenyl)-3-[4-(4-morpholin-4-yl-but-1-ynyl)-phenoxy]-propyl}-dimethyl-amine], the Ki is 181 nM at Rat SERT and 56 nM at human H3 receptor.
Turning to `CN(C)CCC(Oc1ccc(C#CCCN2CCOCC2)cc1)c1ccccc1` (centres unmarked) [Example 61, Dimethyl-{3-[4-(4-morpholin-4-yl-but-1-ynyl)-phenoxy]-3-phenyl-propyl}-amine], the inhibition constant (Ki) on Rat SERT amounted to 108 nM; on human H3 receptor, 102 nM.
Regarding `CC(C)N1CCN(CCC#Cc2ccc(OC(CCN(C)C)c3ccc(C(F)(F)F)cc3)cc2)CC1` (centres unmarked) [Example 62, [3-{4-[4-(4-Isopropyl-piperazin-1-yl)-but-1-ynyl]-phenoxy}-3-(4-trifluoromethyl-phenyl)-propyl]-dimethyl-amine], the values for the Ki at Rat SERT and on human H3 receptor were 166 nM and 143 nM, respectively.
As for `CN(C)CCC(Oc1ccc(C#CCCN2CCSCC2)cc1)c1ccccc1` (centres unmarked) [Example 63, Dimethyl-{3-phenyl-3-[4-(4-thiomorpholin-4-yl-but-1-ynyl)phenoxy]-propyl}-amine], the Ki on Rat SERT was 52 nM; at human H3 receptor, 18 nM.
For `CN(C)CCC(Oc1ccc(C#CCCN2CCOCC2)cc1)c1ccc(C(F)(F)F)cc1` (centres unmarked) [Example 64, Dimethyl-[3-[4-(4-morpholin-4-yl-but-1-ynyl)-phenoxy]-3-(4-trifluoromethyl-phenyl)-propyl]-amine], in that order: 342 nM and 4000 nM.
Consider `CN(C)CCC(Oc1ccc(C#CCCN2CCSCC2)cc1)c1ccc(C(F)(F)F)cc1` (centres unmarked) [Example 76, Dimethyl-[3-[4-(4-thiomorpholin-4-yl-but-1-ynyl)-phenoxy]-3-(4-trifluoromethyl-phenyl)-propyl]-amine], for which the values for the inhibition constant (Ki) on Rat SERT and on human H3 receptor were 537 nM and 75 nM, respectively.
Take `CN(C)CCC(Oc1ccc(C#CCCN2CCCCC2)cc1)c1ccc(F)cc1` (centres unmarked) [Example 77, {3-(4-Fluoro-phenyl)-3-[4-(4-piperidin-1-yl-but-1-ynyl)-phenoxy]-propyl}-dimethyl-amine]: the inhibition constant Ki on Rat SERT was 165 nM; at human H3 receptor, 364 nM.
As to `CN(C)CCC(Oc1ccc(C(F)(F)F)cc1)c1ccc(C(=O)N2CCN(C3CCCCC3)CC2)cc1` (centres unmarked) [Example 78, (4-Cyclohexyl-piperazin-1-yl)-{4-[3-dimethylamino-1-(4-trifluoromethyl-phenoxy)-propyl]-phenyl}-methanone], the inhibitory constant (Ki) at Rat SERT was 223 nM; at human H3 receptor it was 22 nM.
